Measurements taken from US20070032480A1, “Treatment of ischemia-induced arrhythmias” (The Johns Hopkins University, priority 2005, published 2007).
“Also recorded” adds a separate entry of the source.

Key:
[1] = tested on: Langendorff-perfused guinea pig hearts; experiment: Baseline electrophysiological properties (APD, CV) of perfused hearts by optical mapping; conditions: for baseline APD / baseline CV (conduction velocity): optimal concentration of each agent (4.6 μM FGIN-1-27, 0.2 μM CsA, 64 μM 4′Cl-DZP, 10 μM GLIBEN)
Method: All procedures involving the handling of animals were approved by the Animal Care and Use Committee of the Johns Hopkins University and adhered with public health service guidelines. As described in detail elsewhere (28), adult guinea pigs (n=48) were anesthetized with pentobarbital sodium (30 mg/kg ip), and retrogradely perfused as Langendorff preparations with oxygenated (95% 02-5% CO2) Tyrode solution containing (in mmol/l) 130 NaCl, 1.2 MgSO4, 4.75 KCl, 5.0 dextrose, and 1.25 CaCl2 (pH 7.40) at 36±1° C. Hearts were stained with the voltage-sensitive dye, di-4-ANEPPS (15 μmol/l) for 10 min, and then positioned in a chamber such that the mapping field was centered over a 0.8 cm diameter region of left ventricular epicardium, midway between apex and base. Gentle pressure was applied to the posterior surface of the heart with a movable piston to stabilize the mapped surface against the imaging window of the chamber allowing us to avoid the use of electromechanical inhibitors, which interfere with repolarization, and the incidence of arrhythmias. […] Pacing with a silver pin needle placed on the epicardium was performed intermittently and briefly at various times during the experimental protocol in order to obtain a quantitative assessment of epicardial conduction velocity at each time point. Pacing was then turned off in order to determine the intrinsic response of hearts to the ischemia reperfusion protocol independent of exogenous stimulation.
(§1) An optical mapping system was designed with the capability of simultaneously recording transmembrane action potentials (APs) from 464 sites. Emitted fluorescence was collected using a custom designed optical macroscope imaging system consisting of a high numerical aperture photographic lens, a dichroic mirror and an emission filter as previously described in detail (29). Emitted light exiting the detector lens was filtered (>610 nm) and focused onto the photodiode array. Photocurrent from each photodiode underwent current-to-voltage conversion, amplification, band-pass filtering, multiplexing, and digitization (1600 samples/s per channel) with 16-bit precision.
Following extraction and staining with di-4-ANEPPS, hearts were stabilized for 30 min. […] Pharmacological agents were delivered to the heart in one of two ways: 1) continuously, during control perfusion and reperfusion, or 2) in a high dose bolus (5-10× the optimal equilibration concentration), injected into the coronaries during the ischemic phase, 5 min before the onset of reperfusion. […] Following baseline perfusion at 15-20 mL/min to maintain a perfusion pressure of 60-70 mmHg, flow was completely stopped for 30 min (Ischemia phase), and APs (3.8 s epochs) were recorded at 1-min intervals. Following the ischemia phase, perfusion was restored initially at the same flow rate and then was adjusted slightly to exactly match the perfusion pressure during the baseline perfusion phase (Reperfusion phase). The optimal equilibration concentration of each agent was determined by its effects on ischemia-induced AP shortening, recovery of the AP duration (APD), and/or prevention of arrhythmias upon reperfusion.
In order to investigate whether mitochondrial ROS-induced activation of IMAC underlies the electrical dysfunction of hearts subjected to IR, a protocol for reproducibly inducing ventricular fibrillation (VF) in Langendorff-perfused guinea pig hearts was established.

[2] = tested on: Langendorff-perfused guinea pig hearts; experiment: Electrophysiological response to 30 min no-flow global ischemia; conditions: for time for the onset of inexcitability during ischemia: no-flow ischemia, control hearts ˜18 min; for ischemia-induced APD shortening: pre-treatment before no-flow ischemia; for ischemia-induced APD shortening / ischemia-induced reduction of normalized APA and upstroke velocity (dF/dt): versus control hearts; for ischemia-induced reduction of normalized APA and upstroke velocity (dF/dt): relative to pre-ischemia baseline; for blunting of AP shortening and persistence of APs during ischemia at the highest concentration: 100 μM, 30 min no-flow ischemia
Method: (§2) All procedures involving the handling of animals were approved by the Animal Care and Use Committee of the Johns Hopkins University and adhered with public health service guidelines. As described in detail elsewhere (28), adult guinea pigs (n=48) were anesthetized with pentobarbital sodium (30 mg/kg ip), and retrogradely perfused as Langendorff preparations with oxygenated (95% 02-5% CO2) Tyrode solution containing (in mmol/l) 130 NaCl, 1.2 MgSO4, 4.75 KCl, 5.0 dextrose, and 1.25 CaCl2 (pH 7.40) at 36±1° C. Hearts were stained with the voltage-sensitive dye, di-4-ANEPPS (15 μmol/l) for 10 min, and then positioned in a chamber such that the mapping field was centered over a 0.8 cm diameter region of left ventricular epicardium, midway between apex and base. Gentle pressure was applied to the posterior surface of the heart with a movable piston to stabilize the mapped surface against the imaging window of the chamber allowing us to avoid the use of electromechanical inhibitors, which interfere with repolarization, and the incidence of arrhythmias. Although experiments were typically completed within 1.5 to 2 h, these preparations remained stable for over 4 h of perfusion. Pacing with a silver pin needle placed on the epicardium was performed intermittently and briefly at various times during the experimental protocol in order to obtain a quantitative assessment of epicardial conduction velocity at each time point. Pacing was then turned off in order to determine the intrinsic response of hearts to the ischemia reperfusion protocol independent of exogenous stimulation.
as §1
(§3) Following extraction and staining with di-4-ANEPPS, hearts were stabilized for 30 min. Monitoring of APs, perfusion pressure, coronary flow, and temperature ensured electrical stability in all preparations (n=48) used in this study. Pharmacological agents were delivered to the heart in one of two ways: 1) continuously, during control perfusion and reperfusion, or 2) in a high dose bolus (5-10× the optimal equilibration concentration), injected into the coronaries during the ischemic phase, 5 min before the onset of reperfusion. […] Following baseline perfusion at 15-20 mL/min to maintain a perfusion pressure of 60-70 mmHg, flow was completely stopped for 30 min (Ischemia phase), and APs (3.8 s epochs) were recorded at 1-min intervals. Following the ischemia phase, perfusion was restored initially at the same flow rate and then was adjusted slightly to exactly match the perfusion pressure during the baseline perfusion phase (Reperfusion phase). The optimal equilibration concentration of each agent was determined by its effects on ischemia-induced AP shortening, recovery of the AP duration (APD), and/or prevention of arrhythmias upon reperfusion.
Next, the ability of any of these pharmacological interventions to modulate the electrophysiological response of hearts to no-flow global ischemia was tested. […] Also, APD shortening in ischemia was accompanied by progressive reduction of the AP upstroke velocity, which occurred over a similar time frame (see, for example, FIG. 4).
Ischemic elevation of extracellular K^+ concentration, which may be mediated in part by KATP channel opening, might also be expected to partially depolarize the cellular resting membrane potential. […]

[3] = tested on: Langendorff-perfused guinea pig hearts; experiment: Response to reperfusion after 30 min ischemia (arrhythmias, AP recovery); conditions: for period of electrical inexcitability upon reperfusion: 0.2 μM CsA, 4′-Cl-DZP pretreated hearts; for post-ischemic (reperfusion) arrhythmias, effect in words: reperfusion after 30 min ischemia
Method: as §2, §1, §3
Reperfusion of untreated control hearts was associated with sustained ventricular fibrillation (VF) in 89% of hearts (FIG. 5).

[4] = tested on: freshly isolated adult guinea pig ventricular myocytes; experiment: ΔΨm oscillations and action potentials in isolated cardiomyocytes (two-photon TMRM imaging with current-clamp); type: cell-based

COc1ccc(Cl)cc1C(=O)NCCc1ccc(S(=O)(=O)NC(=O)NC2CCCCC2)cc1 [GLIBEN]
baseline APD ([1]; baseline perfusion): 182 ± 16 ms | baseline CV (conduction velocity) ([1]; baseline perfusion): 41 ± 5 cm/s | time for the onset of inexcitability during ischemia [2]: ~18 min | ischemia-induced APD shortening [2]: marked reduction in the rate of APD shortening | ischemia-induced reduction of normalized APA and upstroke velocity (dF/dt) [2]: protected against such decrease in both parameters | hearts in which tachyarrhythmias were prevented ([3]; bolus dose given just prior to reperfusion): 2 of 3

CN1C(=O)CN=C(c2ccc(Cl)cc2)c2cc(Cl)ccc21 [4′-Cl-DZP, 4′-chlorodiazepam]
time from drug application to suppression of AP oscillations and stabilisation of APD90 ([4]; 64 μM): ≤ 2 min | oscillations in APD ([4]; current-clamp, laser-triggered oscillations, 64 μM): eliminated oscillations in APD; also recorded: APD oscillations are eliminated | whole-cell oscillations in ΔΨm ([4]; oscillations triggered by focal two-photon laser flash, TMRM fluorescence): suppressed whole-cell oscillations in ΔΨm; also recorded: interruption of mitochondrial oscillations with ΔΨm recovery | time to return of ΔΨm oscillations after washout of the compound ([4]; washout, FIG. 1A): ≤ 10 min | effect on APD or CV during baseline perfusion ([1]; 100 μM, baseline perfusion): no significant effect on APD or CV; also recorded: comparable | baseline APD ([1]; baseline perfusion): 188 ± 16 ms | baseline CV (conduction velocity) ([1]; baseline perfusion): 39 ± 5 cm/s | blunting of AP shortening and persistence of APs during ischemia at the highest concentration [2]: APs persisted even after 30 min of no-flow ischemia | blunting of AP shortening and persistence of APs during ischemia at the highest concentration ([2]; listed as 4′Cl-DZP): most effective in blunting AP shortening during ischemia | ischemia-induced APD shortening [2]: blunted APD shortening in a dose-dependent fashion; also recorded: blunted APD shortening during ischemia | ischemia-induced reduction of normalized APA and upstroke velocity (dF/dt) [2]: protected against such decrease in both parameters | period of electrical inexcitability upon reperfusion [3]: < 2 min | restoring the APD upon reperfusion and preventing arrhythmias ([3]; 100 μM versus 64 μM): not as effective as the lower concentration of 64 μM in restoring the APD upon reperfusion and preventing arrhythmias | prevention of reperfusion-related VF ([3]; 320 μM high dose bolus 5 min prior to onset of reperfusion): 4 of 4 | prevention of reperfusion-related VF ([3]; 32-64 μM delivered continuously prior to ischemia): 6 of 8 | hearts that exhibited no sustained arrhythmias upon reperfusion ([3]; all 4′-Cl-DZP treated hearts (continuous and bolus)): 10 of 12 | recovery of the AP upon reperfusion ([3]; optimal concentrations (64 μM 4′-Cl-DZP, 0.2 μM CsA)): promoted the rapid recovery of the AP morphology and duration | post-ischemic (reperfusion) arrhythmias, effect in words [3]: markedly decreased the incidence of post-ischemic arrhythmias; also recorded: more effective than continuous inhibition of KATP channels | post-ischemic (reperfusion) arrhythmias, effect in words ([3]; listed as 4′CL-DZP): prevented reperfusion-related ventricular fibrillation

CCCCCCN(CCCCCC)C(=O)Cc1c(-c2ccc(F)cc2)[nH]c2ccccc12 [FGIN-1-27]
effect on APD and excitability during normal perfusion ([1]; 46 μM, normal perfusion): significant APD shortening and membrane inexcitability | time from drug delivery to APD shortening and membrane inexcitability ([1]; 46 μM, normal perfusion): ≤ 15 min | baseline APD ([1]; baseline perfusion): 174 ± 16 ms | baseline CV (conduction velocity) ([1]; baseline perfusion): 44 ± 6 cm/s | time for the onset of inexcitability during ischemia [2]: 12.7 ± 2.6 min | ischemia-induced APD shortening [2]: accelerated APD shortening during ischemia | ischemia-induced reduction of normalized APA and upstroke velocity (dF/dt) [2]: accentuated the ischemia-induced reduction of APA and dF/dt; also recorded: more enhanced reduction of action potential amplitude | slowing of CV during ischemia ([2]; versus untreated hearts): disproportionate slowing of CV | period of electrical inexcitability upon reperfusion [3]: prolonged period of electrical silence | hearts with ventricular tachycardia (VT) upon reperfusion ([3]; FGIN-1-27 treated hearts): 6 of 6 | cycle length of VT upon reperfusion ([3]; compared to control hearts): significantly longer cycle length | post-ischemic (reperfusion) arrhythmias, effect in words [3]: long period of electrical silence followed by ventricular tachycardia (VT) of long duration
